Reference: ChEMBL document CHEMBL1141360, “Kadsuralignans H-K from Kadsura coccinea and their nitric oxide production inhibitory effects” (J Nat Prod, 2007)
Calls of active or inactive are those of the source. No cut-off for these calls is given here.

Columns and labels:
RAW264.7 [1] = assay: Inhibition of LPS and INF-gamma-induced nitric oxide production in mouse RAW264.7 cells after 16 hrs; settings: for IC50: RAW264.7, 16 h
RAW264.7 [2] = assay: Inhibition of LPS-induced nitric oxide production in mouse RAW264.7 cells; format: functional, cell-based

Row | IC50 (RAW264.7 [1]) [µM] | Structure (SMILES) | Activity (RAW264.7 [1]) | IC50 (RAW264.7 [2]) [µM]
1 | – | C/C=C(/C)C(=O)O[C@H]1C2=CC(=O)C(OC)=C(OC)[C@@]23COc2c4c(cc(c23)[C@H](OC(C)=O)[C@H](C)[C@]1(C)O)OCO4 | inactive | –
2 | – | COC1=C(OC)[C@]23COc4c5c(cc(c42)[C@H](OC(=O)c2ccccc2)[C@H](C)[C@](C)(O)[C@@H](OC(C)=O)C3=CC1=O)OCO5 | inactive | –
3 | – | COc1cc2c(c(OC(=O)c3ccccc3)c1OC)-c1c(cc3c(c1OC)OCO3)[C@H](O)[C@H](C)[C@H](C)C2 | inactive | –
4 | 19.6 | COc1cc([C@@H]2c3c(cc(OC)c(OC)c3O)C[C@@H](C)[C@H]2C)cc2c1OCO2 [KADSURALIGNAN H] | – | –
5 | 87.2 | C/C=C(\C)C(=O)Oc1c(OC)c(OC)cc2c1-c1c(cc3c(c1OC)OCO3)[C@H](O)[C@H](C)[C@H](C)C2 [KADSURALIGNAN I] | – | –
6 | 33.5 | CCC(C)C(=O)Oc1c(OC)c(OC)cc2c1-c1c(cc3c(c1OC)OCO3)[C@H](O)[C@H](C)[C@H](C)C2 (stereo partly drawn) [KADSURALIGNAN J] | – | –

Row | Structure (SMILES) | IC50 (RAW264.7 [1]) [µM] | Activity (RAW264.7 [1]) | IC50 (RAW264.7 [2]) [µM]
7 | O=c1c(O)c(-c2ccc(O)c(O)c2)oc2cc(O)cc(O)c12 [QUERCETIN] | 25 | – | 26.8
